Experimental data reported in patent US20200022370A1, “MICROBIOCIDAL OXADIAZOLE DERIVATIVES” (SYNGENTA PARTICIPATIONS AG, priority 2016, published 2020).

Legend:
[1] = system: Glomerella lacenarium (Colletotrichum lacenarium); experiment: Glomerella lacenarium (Colletotrichum lacenarium) liquid culture / cucumber / preventative (anthracnose); type: cell-based; conditions: 20 ppm, liquid culture in PDB, 24° C., inhibition of growth measured photometrically 3 to 4 days after application, vs untreated, read-out: disease control
Description: Mycelia fragments or conidia suspensions of a fungus prepared either freshly from liquid cultures of the fungus or from cryogenic storage, are directly mixed into nutrient broth. DMSO solutions of the test compound (max. 10 mg/ml) are diluted with 0.025% Tween20 by a factor of 50 and 10 μl of this solution is pipetted into a microtiter plate (96-well format). The nutrient broth containing the fungal spores/mycelia fragments is then added to give an end concentration of the tested compound. The test plates are incubated in the dark at 24° C. and 96% relative humidity. The inhibition of fungal growth is determined photometrically after 2 to 7 days, depending on the pathosystem, and percent antifungal activity relative to the untreated check is calculated.
Example 4: Fungicidal Activity Against Glomerella lacenarium (Colletotrichum lacenarium) Liquid Culture/Cucumber/Preventative (Anthracnose)
Conidia of the fungus from cryogenic storage are directly mixed into nutrient broth (PDB-potato dextrose broth). After placing a (DMSO) solution of test compound into a microtiter plate (96-well format), the nutrient broth containing the fungal spores is added. The test plates are incubated at 24° C. and the inhibition of growth is measured photometrically 3 to 4 days after application.
The following compounds at 20 ppm in the applied Formulation give at least 80% disease control in this test when compared to untreated control under the same conditions, which show extensive disease development.

Phakopsora pachyrhizi = Phakopsora pachyrhizi / soybean / leaf disc preventative (Asian soybean rust); type: in vivo; conditions: foliar, 200 ppm in the applied formulation, soybean leaf disks, inoculated one day after application, vs untreated, 12 to 14 days after application, read-out: disease control
Description: (§1) Leaf disks or leaf segments of various plant species are cut from plants grown in a greenhouse. The cut leaf disks or segments are placed in multiwell plates (24-well format) onto water agar. The leaf disks are sprayed with a test solution before (preventative) or after (curative) inoculation. Compounds to be tested are prepared as DMSO solutions (max. 10 mg/ml) which are diluted to the appropriate concentration with 0.025% Tween20 just before spraying. The inoculated leaf disks or segments are incubated under defined conditions (temperature, relative humidity, light, etc.) according to the respective test system. A single evaluation of disease level is carried out 3 to 14 days after inoculation, depending on the pathosystem. Percent disease control relative to the untreated check leaf disks or segments is then calculated.
Example 3: Fungicidal Activity Against Phakopsora pachyrhizi/Soybean/Leaf Disc Preventative (Asian Soybean Rust)
Soybean leaf disks are placed on water agar in multiwell plates (24-well format) and sprayed with the Formulated test compound diluted in water. One day after application leaf discs are inoculated by spraying a spore suspension on the lower leaf surface. After an incubation period in a climate cabinet of 24-36 hours in darkness at 20° C. and 75% rh leaf disc are kept at 20° C. with 12 h light/day and 75% rh. The activity of a compound is assessed as percent disease control compared to untreated when an appropriate level of disease damage appears in untreated check leaf disks (12 to 14 days after application).
(§2) The following compounds at 200 ppm in the applied Formulation give at least 80% disease control in this test when compared to untreated control leaf disks under the same conditions, which show extensive disease development.

[2] = system: Puccinia recondita f. Sp. Tritici; experiment: Puccinia recondita f. sp. tritici / wheat / leaf disc preventative (brown rust); type: in vivo; conditions: foliar, 200 ppm in the applied formulation, wheat leaf segments cv. Kanzler, inoculated 1 day after application, vs untreated, 7 to 9 days after application, read-out: disease control
Description: as §1
Example 1: Fungicidal Activity Against Puccinia recondita f. Sp. Tritici/Wheat/Leaf Disc Preventative (Brown Rust)
Wheat leaf segments cv. Kanzler were placed on agar in multiwell plates (24-well format) and sprayed with the Formulated test compound diluted in water. The leaf disks were inoculated with a spore suspension of the fungus 1 day after application. The inoculated leaf segments were incubated at 19° C. and 75% relative humidity (rh) under a light regime of 12 hours light/12 hours darkness in a climate cabinet and the activity of a compound was assessed as percent disease control compared to untreated when an appropriate level of disease damage appears in untreated check leaf segments (7 to 9 days after application).
as §2

[3] = system: Puccinia recondita f. Sp. Tritici; experiment: Puccinia recondita f. sp. tritici / wheat / leaf disc curative (brown rust); type: in vivo; conditions: foliar, 200 ppm in the applied formulation, wheat leaf segments cv. Kanzler, compound applied 1 day after inoculation, vs untreated, 6 to 8 days after application, read-out: disease control
Description: as §1
Example 2: Fungicidal Activity Against Puccinia recondita f. sp. tritici/Wheat/Leaf Disc Curative (Brown Rust)
Wheat leaf segments cv. Kanzler are placed on agar in multiwell plates (24-well format). The leaf segments are then inoculated with a spore suspension of the fungus. Plates were stored in darkness at 19° C. and 75% relative humidity. The Formulated test compound diluted in water was applied 1 day after inoculation. The leaf segments were incubated at 19° C. and 75% relative humidity under a light regime of 12 hours light/12 hours darkness in a climate cabinet and the activity of a compound was assessed as percent disease control compared to untreated when an appropriate level of disease damage appears in untreated check leaf segments (6 to 8 days after application).
as §2

O=C(Nc1ccc(-c2noc(C(F)(F)F)n2)cc1)C1CC1(F)F (stereo not drawn) [Compound 1.118, 2,2-difluoro-N-[4-[5-(trifluoromethyl)-1,2,4-oxadiazol-3-yl]phenyl]cyclo-propanecarboxamide]
≥ 80%: inhibition of growth at 20 ppm [1] | pest or weed control at 200 ppm (Phakopsora pachyrhizi) | pest or weed control at 200 ppm [2]

O=C(Nc1ccc(-c2noc(C(F)(F)F)n2)cc1)C1CCCCO1 (stereo not drawn) [Compound 1.72, N-[4-[5-(trifluoromethyl)-1,2,4-oxadiazol-3-yl]phenyl] tetrahydropyran-2-carboxamide]
≥ 80%: inhibition of growth at 20 ppm [1] | pest or weed control at 200 ppm (Phakopsora pachyrhizi) | pest or weed control at 200 ppm [2]

O=C(CCc1ccncc1)Nc1ccc(-c2noc(C(F)(F)F)n2)cc1 [Compound 1.107, 3-(4-pyridyl)-N-[4-[5-(trifluoromethyl)-1,2,4-oxadiazol-3-yl]phenyl] propanamide]
≥ 80%: inhibition of growth at 20 ppm [1] | pest or weed control at 200 ppm [2] | pest or weed control at 200 ppm [3]

CCCCC(=O)Nc1ccc(-c2noc(C(F)(F)F)n2)cc1 [Compound 1.92, N-[4-[5-(trifluoromethyl)-1,2,4-oxadiazol-3-yl]phenyl]pentanamide]
≥ 80%: inhibition of growth at 20 ppm [1] | pest or weed control at 200 ppm (Phakopsora pachyrhizi) | pest or weed control at 200 ppm [2]

COc1ccc(CC(=O)Nc2ccc(-c3noc(C(F)(F)F)n3)cc2)cc1 [Compound 1.71, 2-(4-methoxyphenyl)-N-[4-[5-(trifluoromethyl)-1,2,4-oxadiazol-3-yl]phenyl]acetamide]
≥ 80%: inhibition of growth at 20 ppm [1] | pest or weed control at 200 ppm (Phakopsora pachyrhizi) | pest or weed control at 200 ppm [2]

CC1CC1C(=O)Nc1ccc(-c2noc(C(F)(F)F)n2)cc1 (stereo not drawn) [Compound 1.90, 2-methyl-N-[4-[5-(trifluoromethyl)-1,2,4-oxadiazol-3-yl]phenyl]cyclo-propanecarboxamide]
≥ 80%: inhibition of growth at 20 ppm [1] | pest or weed control at 200 ppm (Phakopsora pachyrhizi) | pest or weed control at 200 ppm [2]

CC1(C(=O)Nc2ccc(-c3noc(C(F)(F)F)n3)cc2)CC1 [Compound 2.11, 1-methyl-N-[4-[5-(trifluoromethyl)-1,2,4-oxadiazol-3-yl]phenyl] cyclopropane-carboxamide]
≥ 80%: inhibition of growth at 20 ppm [1] | pest or weed control at 200 ppm (Phakopsora pachyrhizi) | pest or weed control at 200 ppm [2]

CSCC(C)C(=O)Nc1ccc(-c2noc(C(F)(F)F)n2)cc1 (stereo not drawn) [Compound 1.77, 2-methyl-3-methylsulfanyl-N-[4-[5-(trifluoromethyl)-1,2,4-oxadiazol-3-yl]phenyl] propanamide]
≥ 80%: inhibition of growth at 20 ppm [1] | pest or weed control at 200 ppm [2] | pest or weed control at 200 ppm [3]

Cc1ccnn1CC(=O)Nc1ccc(-c2noc(C(F)(F)F)n2)cc1 [Compound 1.87, 2-(5-methylpyrazol-1-yl)-N-[4-[5-(trifluoromethyl)-1,2,4-oxadiazol-3-yl]phenyl]acetamide]
≥ 80%: inhibition of growth at 20 ppm [1] | pest or weed control at 200 ppm [2] | pest or weed control at 200 ppm [3]

COCC(=O)N(C)c1ccc(-c2noc(C(F)(F)F)n2)cc1 [Compound 1.129, 2-methoxy-N-methyl-N-[4-[5-(trifluoromethyl)-1,2,4-oxadiazol-3-yl]phenyl]acetamide]
≥ 80%: inhibition of growth at 20 ppm [1] | pest or weed control at 200 ppm [2] | pest or weed control at 200 ppm [3]

O=C(Nc1ccc(-c2noc(C(F)(F)F)n2)cc1)C1CCOC1 (stereo not drawn) [Compound 1.116, N-[4-[5-(trifluoromethyl)-1,2,4-oxadiazol-3-yl]phenyl] tetrahydrofuran-3-carboxamide]
≥ 80%: inhibition of growth at 20 ppm [1] | pest or weed control at 200 ppm [2] | pest or weed control at 200 ppm [3]

CCCC(C)C(=O)Nc1ccc(-c2noc(C(F)(F)F)n2)cc1 (stereo not drawn) [Compound 1.86, 2-methyl-N-[4-[5-(trifluoromethyl)-1,2,4-oxadiazol-3-yl]phenyl] pentanamide]
≥ 80%: inhibition of growth at 20 ppm [1] | pest or weed control at 200 ppm (Phakopsora pachyrhizi) | pest or weed control at 200 ppm [2]

COc1ncnc(OC)c1CC(=O)Nc1ccc(-c2noc(C(F)(F)F)n2)cc1 [Compound 1.36, 2-(4,6-dimethoxypyrimidin-5-yl)-N-[4-[5-(trifluoromethyl)-1,2,4-oxadiazol-3-yl]phenyl]acetamide]
≥ 80%: inhibition of growth at 20 ppm [1] | pest or weed control at 200 ppm (Phakopsora pachyrhizi) | pest or weed control at 200 ppm [2]

O=C(CC(F)(F)F)Nc1ccc(-c2noc(C(F)(F)F)n2)cc1 [Compound 1.125, 3,3,3-trifluoro-N-[4-[5-(trifluoromethyl)-1,2,4-oxadiazol-3-yl]phenyl] propanamide]
≥ 80%: inhibition of growth at 20 ppm [1] | pest or weed control at 200 ppm (Phakopsora pachyrhizi) | pest or weed control at 200 ppm [2]

O=C(Cc1ccc2c(c1)OCO2)Nc1ccc(-c2noc(C(F)(F)F)n2)cc1 [Compound 1.12, 2-(1,3-benzodioxol-5-yl)-N-[4-[5-(trifluoromethyl)-1,2,4-oxadiazol-3-yl]phenyl]acetamide]
≥ 80%: inhibition of growth at 20 ppm [1] | pest or weed control at 200 ppm (Phakopsora pachyrhizi) | pest or weed control at 200 ppm [2]

CC(C)CC(=O)Nc1ccc(-c2noc(C(F)(F)F)n2)cc1 [Compound 1.85, 3-methyl-N-[4-[5-(trifluoromethyl)-1,2,4-oxadiazol-3-yl]phenyl]butanamide]
≥ 80%: inhibition of growth at 20 ppm [1] | pest or weed control at 200 ppm (Phakopsora pachyrhizi) | pest or weed control at 200 ppm [2]

O=C(Nc1ccc(-c2noc(C(F)(F)F)n2)nc1)c1ccc(-n2ccnc2)cc1 [Compound 1.54, 4-imidazol-1-yl-N-[6-[5-(trifluoromethyl)-1,2,4-oxadiazol-3-yl]-3-pyridyl]benzamide]
≥ 80%: inhibition of growth at 20 ppm [1] | pest or weed control at 200 ppm (Phakopsora pachyrhizi) | pest or weed control at 200 ppm [2]

O=C(CC1CC1(F)F)Nc1ccc(-c2noc(C(F)(F)F)n2)cc1 (stereo not drawn) [Compound 1.124, 2-(2,2-difluorocyclopropyl)-N-[4-[5-(trifluoromethyl)-1,2,4-oxadiazol-3-yl]phenyl]acetamide]
≥ 80%: inhibition of growth at 20 ppm [1] | pest or weed control at 200 ppm (Phakopsora pachyrhizi) | pest or weed control at 200 ppm [2]
